# Measurements: patent US20110293745A1, “AURORA KINASE INHIBITORS” (SUNESIS PHARMACEUTICALS, INC., priority 2008, published 2011)
# Key:
# [1] = tested on: HCT 116 tumor xenograft; assay: Microscopy of tumor sections (Caspase-3, H&E); type: in vivo, mouse; details: 170 mg/kg twice-weekly for three weeks
# Experimental: The studies in Examples 20, 21, and 22 used female mice nu/nu athymic mice. Compound 1 was formulated fresh each week for dosing.
# HCT 116 colorectal carcinoma cells were implanted in the animals' right hind flanks subcutaneously with 200 μL of a 2.5×10^7 cells/mL suspension [1:1 Dulbecco's PBS (DPBS) with cells:Matrigel™. For each of the studies of compound distribution, pHH3 levels, and tumor section microscopy, after the tumors reached an average volume of 500 mm^3, the animals were weighed and sorted into randomized groups before initial dosing. Dosing schedules are provided separately for each of the studies in Examples 28, 29, and 30.
# Following the treatment, tumors were harvested, placed in Streck fixative, paraffin embedded, sectioned, and transferred to slides. Tumor sections were stained with hematoxylin and eosin (H&E). Hematoxylin stains negatively charged nucleic acid structures, such as nuclei and ribosomes, blue, whereas eosin stains proteins pink. Treatments were administered on Day 1, 4, 8, 11, 15, and 18, with tumors being excised Day 4, 11, 18, and 25 of the study. All images in this Figure were taken at 40× magnification.
# [2] = tested on: H1299 non-small cell lung cancer xenograft; assay: In vivo efficacy, mouse xenograft; details: H1299 (NSCLC)
# Experimental: (§1) Percent TGI is then calculated with the following equation: […]
# (§2) Time To Endpoint (TTE) was calculated for each individual animal to reach the predetermined study end point where the tumor volume becomes 1200 mm^3 or 10% of body weight or a greater than 20% body weight loss for two sequential measurements. The TTE is calculated and the median value is recorded for the group. Tumor Growth Delay (TGD) is then calculated with the following equation: […]
# H1299 non-small cell lung cancer cells [200 μL of a 5×10^7 cells/mL suspension (1:1 DPBS with cells:Matrigel)] were implanted subcutaneously in the right hind flank. After 10 days, when tumors reached an average volume of approximately 100 mm^3, animals were weighed, randomized by tumor volume (l×w×h×0.52), and assigned to the various study groups before initial dosing.
# [3] = tested on: A2780 ovarian cancer xenograft; assay: In vivo efficacy, mouse xenograft
# Experimental: as §1, §2
# A2780 ovarian cancer cells [200 μL of a 2.5×10^7 cells/mL suspension (1:1 DPBS with cells:Matrigel)] were implanted subcutaneously in the right hind flank of mice. After 7 days, when tumors reached an average volume of approximately 130 mm^3, animals were weighed, randomized by tumor volume (l×w×h×0.52), and assigned to the various study groups before initial dosing.
# [4] = tested on: HCT 116 cells; assay: Flow cytometry, DNA content (propidium iodide); type: cell-based, human; details: 36 nM, 16 hours
# Experimental: HCT 116 cells were seeded at 10,000 cells per well in 12-well plates and cells were incubated 24 hr at 37° C. […] After 16 hrs, media was aspirated and placed in a labeled collection tube, cells were trypsinized with 100 μL trypsin for 5 min at room temperature, quenched with fresh media, and placed in the collection tube with their appropriate media aspirate. Cells were spun at 2000 RPM for 5 min, supernatant was aspirated, and cells were re-suspended in 50 μl, 1× phosphate buffered saline (PBS) and 200 μL 100% methanol. Samples were then placed at −20° C. Cells fixed in methanol were spun at 2000 RPM for 5 min, supernatant was removed and cells were washed with 500 μL 0.1% bovine serum albumin (BSA) in PBS. Cells were re-suspended in 100 μL propidium iodide (PI) staining solution [prepared from 10 μg/mL PI (Sigma #P4864), 100 μg/mL RNase (Sigma #R4642) in PBS] and incubated at 37° C. for 1 hr. Cell populations were then analyzed by flow cytometry on Fluorescence-Activated Cell Sorter (FACS) instrumentation (FACSCalibur; Becton-Dickinson) according to common techniques. The distribution of cells in the various phases of cell cycle was assessed by propidium iodide (PI) staining of DNA. The total intensity of PI was considered to reflect the DNA content of cells.
# [5] = Clinical serum concentration versus target threshold; type: in vivo, human; details: patients; for Duration of target serum concentration: target serum concentration 1 μM
structure (smiles),measurement,setting,value
"CS(=O)(=O)O.O=C(Nc1cccc(Cl)c1)Nc1ncc(CCNc2ncnc3ccsc23)s1 [Compound 1, 1-(3-chlorophenyl)-3-{5-[2-(thieno[3,2-d]pyrimidin-4-ylamino)ethyl]thiazo}-urea]",large polyploid cells in tumor,[1],appeared by Day 4 and persisted for at least 25 days
same,caspase-3 positive cells in tumor versus vehicle,[1]; up to 18 days,significant increase
same,% TGI,[2]; 42.5 mg/kg biw × 3,0%
same,TGD,[2]; 42.5 mg/kg biw × 3,0 days
same,% TGI,[2]; 85 mg/kg biw × 3,17.7%
same,TGD,[2]; 85 mg/kg biw × 3,0 days
same,% TGI,[2]; 170 mg/kg biw × 3,69.1%
same,TGD,[2]; 170 mg/kg biw × 3,5.7 days
same,% TGI,[3]; 42.5 mg/kg biw × 3,0%
same,TGD,[3]; 42.5 mg/kg biw × 3,0 days
same,% TGI,[3]; 85 mg/kg biw × 3,9.8%
same,TGD,[3]; 85 mg/kg biw × 3,3.5 days
same,% TGI,[3]; 170 mg/kg biw × 3,53.8%
same,TGD,[3]; 170 mg/kg biw × 3,9 days
same,DNA content of cells,[4],predominantly 4N and 8N DNA content
"O=C(Nc1cccc(Cl)c1)Nc1ncc(CCNc2ncnc3ccsc23)s1 [Compound 2, 1-(3-chlorophenyl)-3-{5-[2-(thieno[3,2-d]pyrimidin-4-ylamino)ethyl]thiazol-2-yl}-urea]",serum levels versus preclinical target inhibitory levels,[5]; 240 mg/m^2 dose level,exceeded the preclinical target inhibitory levels
same,minimum duration target serum concentration was achieved,[5]; all dose levels,≥ 4 h
same,Duration of target serum concentration,"[5]; 3-hour infusion of Compound 1, 30 mg/m^2",4 h
same,Duration of target serum concentration,"[5]; 3-hour infusion of Compound 1, 60 mg/m^2",8 h
same,Duration of target serum concentration,"[5]; 3-hour infusion of Compound 1, 120 mg/m^2",10 h
same,Duration of target serum concentration,"[5]; 3-hour infusion of Compound 1, 240 mg/m^2",20 h
same,Duration of target serum concentration,"[5]; 3-hour infusion of Compound 1, 480 mg/m^2",20 h
